The text below walks through data of the PolyMetriX glass transition set.

With `*C(=O)Nc1ccc(Oc2ccc(C3(c4ccc(Oc5ccc(NC(=O)c6ccc7c(c6)C(=O)N(c6ccc(N8C(=O)c9ccc(*)cc9C8=O)cc6)C7=O)cc5)cc4)NC(=O)c4ccccc43)cc2)cc1` (repeat unit), the glass transition temperature worked out at 322.00 °C. In the case of `*C(=O)Nc1ccc(Oc2ccc(C3(c4ccc(Oc5ccc(NC(=O)c6ccc7c(c6)C(=O)N(c6ccc(Oc8ccc(N9C(=O)c%10ccc(*)cc%10C9=O)cc8)cc6)C7=O)cc5)cc4)NC(=O)c4ccccc43)cc2)cc1` (repeat unit) it was 320.00 °C; in that of `*C(=O)Nc1ccc(Oc2ccc(C3(c4ccc(Oc5ccc(NC(=O)c6ccc7c(c6)C(=O)N(c6ccc(Oc8cccc(N9C(=O)c%10ccc(*)cc%10C9=O)c8)cc6)C7=O)cc5)cc4)NC(=O)c4ccccc43)cc2)cc1` (repeat unit), 272.00 °C; in that of `*C(=O)Nc1ccc(Oc2ccc(C3(c4ccc(Oc5ccc(NC(=O)c6ccc7c(c6)C(=O)N(c6ccc(Oc8cccc(Oc9ccc(N%10C(=O)c%11ccc(*)cc%11C%10=O)cc9)c8)cc6)C7=O)cc5)cc4)NC(=O)c4ccccc43)cc2)cc1` (repeat unit), 267.00 °C. Compound `*C(=O)Nc1ccc(Oc2ccc(N3C(=O)CC(N4C(=O)c5ccc(*)cc5C4=O)C3=O)cc2)cc1` (repeat unit) came in with a glass transition temperature of 223.00 °C. In the case of `*C(=O)Nc1ccc(Oc2ccc(NC(=O)c3ccc4c(c3)C(=O)N(c3ccc(-c5sc(-c6ccc(N7C(=O)c8ccc(*)cc8C7=O)cc6)c(-c6ccccc6)c5-c5ccccc5)cc3)C4=O)cc2)cc1` (repeat unit) it was 320.00 °C; in that of `*C(=O)Nc1ccc(Oc2ccc(NC(=O)c3ccc4c(c3)C(=O)N(c3ccc(S(=O)(=O)c5ccc(N6C(=O)c7ccc(*)cc7C6=O)cc5)cc3)C4=O)cc2)cc1` (repeat unit), 281.00 °C. In the case of `*C(=O)Nc1ccc(Oc2ccc(Oc3ccc(N4C(=O)c5ccc(*)cc5C4=O)cc3)cc2)cc1` (repeat unit) it was 250.00 °C; in that of `*C(=O)Nc1ccc(Oc2ccc(Oc3ccc(NC(=O)c4ccc5c(c4)C(=O)N(c4ccc(-c6sc(-c7ccc(N8C(=O)c9ccc(*)cc9C8=O)cc7)c(-c7ccccc7)c6-c6ccccc6)cc4)C5=O)cc3)cc2)cc1` (repeat unit), 303.00 °C; in that of `*C(=O)Nc1ccc(Oc2ccc(Oc3ccc(NC(=O)c4ccc5c(c4)C(=O)N(c4ccc(Oc6ccc(C7(c8ccc(Oc9ccc(N%10C(=O)c%11ccc(*)cc%11C%10=O)cc9)cc8)CC8CC7C7CCCC87)cc6)cc4)C5=O)cc3)cc2)cc1` (repeat unit), 257.00 °C. To `*C(=O)Nc1ccc(Oc2ccc(Oc3ccc(NC(=O)c4ccc5c(c4)C(=O)N(c4ccc(Oc6ccc(N7C(=O)c8ccc(*)cc8C7=O)cc6)cc4)C5=O)cc3)cc2)cc1` (repeat unit) belongs 260.00 °C; to `*C(=O)Nc1ccc(Oc2ccc(Oc3ccc(NC(=O)c4ccc5c(c4)C(=O)N(c4ccc(Oc6cccc7c(Oc8ccc(N9C(=O)c%10ccc(*)cc%10C9=O)cc8)cccc67)cc4)C5=O)cc3)cc2)cc1` (repeat unit), 285.00 °C; to `*C(=O)Nc1ccc(Oc2ccc(S(=O)(=O)c3ccc(Oc4ccc(NC(=O)c5ccc6c(c5)C(=O)N(c5ccc(Oc7ccc8ccc(Oc9ccc(N%10C(=O)c%11ccc(*)cc%11C%10=O)cc9)cc8c7)cc5)C6=O)cc4)cc3)cc2)cc1` (repeat unit), 274.00 °C.

With `*C(=O)Nc1ccc(Oc2ccc(S(=O)(=O)c3ccc(Oc4ccc(NC(=O)c5ccc6c(c5)C(=O)N(c5ccc(Oc7cccc8c(Oc9ccc(N%10C(=O)c%11ccc(*)cc%11C%10=O)cc9)cccc78)cc5)C6=O)cc4)cc3)cc2)cc1` (repeat unit), the glass transition temperature worked out at 260.00 °C. `*C(=O)c1ccc2c(c1)C(=O)N(c1ccc(Oc3ccc(NC(=O)c4cccc(C(=O)Nc5ccc(Oc6ccc(N7C(=O)c8ccc(*)cc8C7=O)cc6)cc5)c4)cc3)cc1)C2=O` (repeat unit) had a glass transition temperature of 232.00 °C. To `*Oc1cc(Oc2ccc(NC(=O)c3cc(NC(=O)C45CC6CC(CC(C6)C4)C5)cc(C(=O)Nc4ccc(*)cc4)c3)cc2)ccc1C12CC3CC(CC(C3)C1)C2` (repeat unit) belongs 345.00 °C. In turn, `*Oc1ccc(NC(=C(C#N)C#N)c2ccc(C(Nc3ccc(*)cc3)=C(C#N)C#N)cc2)cc1` (repeat unit) came in with a glass transition temperature of 274.00 °C. To `*Oc1ccc(NC(=O)c2cc(C(=O)Nc3ccc(*)cc3)cc(C(F)(F)C(F)(F)C(F)(F)C(F)(F)F)c2)cc1` (repeat unit) belongs 257.00 °C. In the case of `*Oc1ccc(NC(=O)c2cc(NC(=O)C34CC5CC(CC(C5)C3)C4)cc(C(=O)Nc3ccc(*)cc3)c2)cc1` (repeat unit) it was 335.00 °C; in that of `*Oc1ccc(NC(=O)c2ccc(C(=O)Nc3ccc(*)cc3)cc2)cc1` (repeat unit), 240.50 °C. In the case of `*Oc1ccc(NC(=O)c2ccc(Oc3ccc(C(=O)Nc4ccc(Oc5ccc(C6(c7ccc(*)cc7)C7CC8CC(C7)CC6C8)cc5)cc4)cc3)cc2)cc1` (repeat unit) it was 230.00 °C. The compound `*Oc1ccc(NC(=O)c2ccc(P(=O)(c3ccccc3)c3ccc(C(=O)Nc4ccc(Oc5ccc(P(=O)(c6ccccc6)c6ccc(*)cc6)cc5)cc4)cc3)cc2)cc1` (repeat unit) had a glass transition temperature of 225.00 °C.

The compound `*Oc1ccc(NC(=O)c2ccc(S(=O)(=O)c3ccc(C(=O)Nc4ccc(Oc5ccc(C6(c7ccc(*)cc7)C7CC8CC(C7)CC6C8)cc5)cc4)cc3)cc2)cc1` (repeat unit) had a glass transition temperature of 252.00 °C. In the case of `*Oc1ccc(NC(=O)c2ccc(S(=O)(=O)c3ccc(C(=O)Nc4ccc(Oc5ccc(C6(c7ccc(*)cc7)CC7CCC6C7)cc5)cc4)cc3)cc2)cc1` (repeat unit) it was 287.00 °C. `*Oc1ccc(NC(=O)c2ccc3cc(C(=O)Nc4ccc(Oc5ccc(C6(c7ccc(*)cc7)C7CC8CC(C7)CC6C8)cc5)cc4)ccc3c2)cc1` (repeat unit) had a glass transition temperature of 266.00 °C. In the case of `*Oc1ccc(NC(=O)c2cccc(C(=O)Nc3ccc(*)cc3)c2)cc1` (repeat unit) it was 264.00 °C; in that of `*Oc1ccc(Oc2ccc(NC(=C(C#N)C#N)c3ccc(C(Nc4ccc(*)cc4)=C(C#N)C#N)cc3)cc2)cc1` (repeat unit), 255.00 °C. To `*c1ccc(-c2ccc(-n3c(-c4ccc(Oc5ccc(C(=O)c6ccc(C(=O)c7ccc(Oc8ccc(-c9nc%10ccccc%10n9*)cc8)cc7)cc6)cc5)cc4)nc4ccccc43)cc2)cc1` (repeat unit) belongs 259.00 °C; to `*c1ccc(C(=O)Nc2ccc(Oc3ccc(NC(=O)c4ccc(Oc5ccc(-c6nn(*)c(=O)c7ccccc67)c6ccccc56)cc4)cc3)cc2)cc1` (repeat unit), 317.50 °C. To `*c1ccc(C(=O)Nc2ccc(Oc3ccc(Oc4ccc(NC(=O)c5ccc(Oc6ccc(-c7nn(*)c(=O)c8ccccc78)c7ccccc67)cc5)cc4)cc3)cc2)cc1` (repeat unit) belongs 289.50 °C; to `*c1ccc(C(=O)Nc2ccc(Oc3ccc(Oc4ccc(NC(=O)c5ccc(Oc6ccc(-c7nn(*)c(=O)c8ccccc78)c7ccccc67)cc5)cc4C(F)(F)F)cc3)c(C(F)(F)F)c2)cc1` (repeat unit), 281.50 °C; to `*c1ccc(C(=O)Nc2ccc(Oc3ccc(S(=O)(=O)c4ccc(Oc5ccc(NC(=O)c6ccc(N7C(=O)c8ccc(-c9cccc%10c9C(=O)N(*)C%10=O)cc8C7=O)cc6)cc5)cc4)cc3)cc2)cc1` (repeat unit), 287.00 °C. As for `*c1ccc(Oc2ccc(C(=O)c3ccc(C(=O)c4ccc(Oc5ccc(N6C(=O)c7ccc(-c8ccc9c(c8)C(=O)N(*)C9=O)cc7C6=O)cc5)cc4)cc3)cc2)cc1` (repeat unit), the glass transition temperature turned out to be 245.00 °C.

In turn, `*c1ccc(Oc2ccc(NC(=O)c3ccc(Oc4ccc5c(c4)C(=O)N(*)C5=O)cc3)cc2)cc1` (repeat unit) displayed a glass transition temperature of 262.00 °C. To `*c1ccc(Oc2ccc(NC(=O)c3ccc(Oc4cccc5c4C(=O)N(*)C5=O)cc3)cc2)cc1` (repeat unit) belongs 253.00 °C; to `*c1ccc(Oc2ccc(NC(=O)c3ccc4c(c3)C(=O)N(c3ccc(Cc5ccc(N6C(=O)c7ccc(C(=O)Nc8ccc(Oc9ccc(C%10(*)NC(=O)c%11ccccc%11%10)cc9)cc8)cc7C6=O)cc5)cc3)C4=O)cc2)cc1` (repeat unit), 302.00 °C.

As to `*c1ccc(Oc2ccc(Oc3ccc(NC(=O)c4ccc(Oc5ccc6c(c5)C(=O)N(*)C6=O)cc4)cc3)cc2)cc1` (repeat unit), the glass transition temperature was 242.00 °C. In the case of `*c1ccc(Oc2ccc(Oc3ccc(NC(=O)c4ccc(Oc5cccc6c5C(=O)N(*)C6=O)cc4)cc3)cc2)cc1` (repeat unit) it was 244.00 °C.

`*c1ccc(Oc2ccc(Oc3ccc(NC(=O)c4cccc(Oc5ccc6c(c5)C(=O)N(*)C6=O)c4)cc3)cc2)cc1` (repeat unit) came in with a glass transition temperature of 213.00 °C. `*c1cccc(C(=O)Nc2ccc(Oc3ccc(NC(=O)c4cccc(N5C(=O)c6ccc(-c7ccc8c(c7)C(=O)N(*)C8=O)cc6C5=O)c4)cc3)cc2)c1` (repeat unit) showed a glass transition temperature of 253.00 °C. To `*c1cccc(C(=O)Nc2ccc(Oc3ccc(Oc4ccc(NC(=O)c5cccc(N6C(=O)c7ccc(-c8ccc9c(c8)C(=O)N(*)C9=O)cc7C6=O)c5)cc4)cc3)cc2)c1` (repeat unit) belongs 244.00 °C; to `*c1cccc(C(=O)Nc2ccc(Oc3ccc(Oc4ccc(NC(=O)c5cccc(N6C(=O)c7ccc(-c8cccc9c8C(=O)N(*)C9=O)cc7C6=O)c5)cc4)cc3)cc2)c1` (repeat unit), 268.00 °C. To `*c1cccc(C(=O)Nc2ccc(Oc3ccc(Oc4ccc(Oc5ccc(NC(=O)c6cccc(N7C(=O)c8ccc(-c9ccc%10c(c9)C(=O)N(*)C%10=O)cc8C7=O)c6)cc5)cc4)cc3)cc2)c1` (repeat unit) belongs 244.00 °C. Compound `*c1cccc(C(=O)Nc2ccc(Oc3ccc(S(=O)(=O)c4ccc(Oc5ccc(NC(=O)c6cccc(N7C(=O)c8ccc(-c9ccc%10c(c9)C(=O)N(*)C%10=O)cc8C7=O)c6)cc5)cc4)cc3)cc2)c1` (repeat unit) registered a glass transition temperature of 258.00 °C.
